System: 945468-187-T-J2-PDC spheroids viability
Assay: Anticancer human tumor 945468-187-T-J2-PDC patient-derived rectal carcinoma cell line growth inhibition [PI3K]
Conditions: spheroids with HUVEC and MSC; for viability, T/C: stronger effect = lower value
How it was run: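 Tumor cells grown as multi-cell spheroids with HUVEC endothelial cells and MSC fibroblast-like stroma were treated with targeted agents combined with inavolisib, alpelisib, duvelisib or copanlisib. Doses fell in half-log steps from near clinical Cmax, else from 10 microM. Viability was measured.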

[1] = curve of first compound, second compound 0.00316 µM
[2] = curve of first compound, second compound 0.01 µM
[3] = curve of first compound, second compound 0.0316 µM
[4] = curve of first compound, second compound 0.1 µM
[5] = curve of first compound, second compound 0.316 µM
[6] = curve of first compound, second compound 1 µM
[7] = second compound 0.00316 µM, first compound 0.0316 µM
[8] = second compound 0.00316 µM, first compound 0.1 µM
[9] = second compound 0.00316 µM, first compound 0.316 µM
[10] = second compound 0.00316 µM, first compound 1 µM
[11] = second compound 0.00316 µM, first compound 3.16 µM
[12] = second compound 0.00316 µM, first compound 10 µM
[13] = second compound 0.01 µM, first compound 0.0316 µM
[14] = second compound 0.01 µM, first compound 0.1 µM
[15] = second compound 0.01 µM, first compound 0.316 µM
[16] = second compound 0.01 µM, first compound 1 µM
[17] = second compound 0.01 µM, first compound 3.16 µM
[18] = second compound 0.01 µM, first compound 10 µM
[19] = second compound 0.0316 µM, first compound 0.0316 µM
[20] = second compound 0.0316 µM, first compound 0.1 µM
[21] = second compound 0.0316 µM, first compound 0.316 µM
[22] = second compound 0.0316 µM, first compound 1 µM
[23] = second compound 0.0316 µM, first compound 3.16 µM
[24] = second compound 0.0316 µM, first compound 10 µM
[25] = second compound 0.1 µM, first compound 0.0316 µM
[26] = second compound 0.1 µM, first compound 0.1 µM
[27] = second compound 0.1 µM, first compound 0.316 µM
[28] = second compound 0.1 µM, first compound 1 µM
[29] = second compound 0.1 µM, first compound 3.16 µM
[30] = second compound 0.1 µM, first compound 10 µM
[31] = second compound 0.316 µM, first compound 0.0316 µM
[32] = second compound 0.316 µM, first compound 0.1 µM
[33] = second compound 0.316 µM, first compound 0.316 µM
[34] = second compound 0.316 µM, first compound 1 µM
[35] = second compound 0.316 µM, first compound 3.16 µM
[36] = second compound 0.316 µM, first compound 10 µM
[37] = second compound 1 µM, first compound 0.0316 µM
[38] = second compound 1 µM, first compound 0.1 µM
[39] = second compound 1 µM, first compound 0.316 µM
[40] = second compound 1 µM, first compound 1 µM
[41] = second compound 1 µM, first compound 3.16 µM
[42] = second compound 1 µM, first compound 10 µM
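Note: spheroids exposed to compounds for seven days before reading.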

Structure (SMILES): CC(Cn1ccc(-c2ccc(C#N)c(Cl)c2)n1)NC(=O)c1cc(C(C)O)[nH]n1 (stereo unspecified) + COc1c(OCCCN2CCOCC2)ccc2c3n(c(=NC(=O)c4cnc(N)nc4)nc12)CCN3
- IC50 [1]: > 10 µM
- IC50 [2]: > 10 µM
- IC50 [3]: > 10 µM
- IC50 [4]: > 10 µM
- IC50 [5]: < 0.0316 µM
- IC50 [6]: < 0.0316 µM
- viability, T/C [7]: 85.6%
- viability, T/C [8]: 112%
- viability, T/C [9]: 124%
- viability, T/C [10]: 94.6%
- viability, T/C [11]: 92.2%
- viability, T/C [12]: 114%
- viability, T/C [13]: 91.3%
- viability, T/C [14]: 104%
- viability, T/C [15]: 117%
- viability, T/C [16]: 115%
- viability, T/C [17]: 105%
- viability, T/C [18]: 108%
- viability, T/C [19]: 90.7%
- viability, T/C [20]: 114%
- viability, T/C [21]: 113%
- viability, T/C [22]: 101%
- viability, T/C [23]: 108%
- viability, T/C [24]: 89.3%
- viability, T/C [25]: 79.4%
- viability, T/C [26]: 95%
- viability, T/C [27]: 81.5%
- viability, T/C [28]: 94.3%
- viability, T/C [29]: 84.8%
- viability, T/C [30]: 87%
- viability, T/C [31]: 40.8%
- viability, T/C [32]: 33.2%
- viability, T/C [33]: 49%
- viability, T/C [34]: 39.2%
- viability, T/C [35]: 42.5%
- viability, T/C [36]: 48.1%
- viability, T/C [37]: 21.3%
- viability, T/C [38]: 23.5%
- viability, T/C [39]: 22.9%
- viability, T/C [40]: 22%
- viability, T/C [41]: 24.3%
- viability, T/C [42]: 25.2%

Structure (SMILES): C=CC(=O)N1CCN(c2nc(=O)n(-c3c(C)ccnc3C(C)C)c3nc(-c4c(O)cccc4F)c(F)cc23)C(C)C1 (stereo unspecified) + Cc1nc(NC(=O)N2CCCC2C(N)=O)sc1-c1ccnc(C(C)(C)C(F)(F)F)c1
- IC50 [3]: > 10 µM
- IC50 [4]: > 10 µM
- IC50 [5]: > 10 µM
- IC50 [6]: > 10 µM
- IC50 (curve of first compound, second compound 3.16 µM): > 10 µM
- IC50 (curve of first compound, second compound 10 µM): > 10 µM
- viability, T/C [19]: 102%
- viability, T/C [20]: 79.7%
- viability, T/C [21]: 96.2%
- viability, T/C [22]: 90.1%
- viability, T/C [23]: 128%
- viability, T/C [24]: 113%
- viability, T/C [25]: 117%
- viability, T/C [26]: 121%
- viability, T/C [27]: 97.9%
- viability, T/C [28]: 97.5%
- viability, T/C [29]: 95%
- viability, T/C [30]: 106%
- viability, T/C [31]: 117%
- viability, T/C [32]: 156%
- viability, T/C [33]: 102%
- viability, T/C [34]: 106%
- viability, T/C [35]: 101%
- viability, T/C [36]: 96%
- viability, T/C [37]: 102%
- viability, T/C [38]: 111%
- viability, T/C [39]: 100%
- viability, T/C [40]: 91.6%
- viability, T/C [41]: 95%
- viability, T/C [42]: 104%
- viability, T/C (second compound 3.16 µM, first compound 0.0316 µM): 91.2%
- viability, T/C (second compound 3.16 µM, first compound 0.1 µM): 107%
- viability, T/C (second compound 3.16 µM, first compound 0.316 µM): 83.8%
- viability, T/C (second compound 3.16 µM, first compound 1 µM): 81.9%
- viability, T/C (second compound 3.16 µM, first compound 3.16 µM): 82.8%
- viability, T/C (second compound 3.16 µM, first compound 10 µM): 96.2%
- viability, T/C (second compound 10 µM, first compound 0.0316 µM): 70.4%
- viability, T/C (second compound 10 µM, first compound 0.1 µM): 87.8%
- viability, T/C (second compound 10 µM, first compound 0.316 µM): 81.7%
- viability, T/C (second compound 10 µM, first compound 1 µM): 73.7%
- viability, T/C (second compound 10 µM, first compound 3.16 µM): 87.3%
- viability, T/C (second compound 10 µM, first compound 10 µM): 92.9%

Structure (SMILES): Cn1ncc(Cl)c1-c1cc(C(=O)NC(CN)Cc2cccc(F)c2)sc1Cl (stereo unspecified) + COc1c(OCCCN2CCOCC2)ccc2c3n(c(=NC(=O)c4cnc(N)nc4)nc12)CCN3
- IC50 [1]: > 10 µM
- IC50 [2]: > 10 µM
- IC50 [3]: 4.53 µM
- IC50 [4]: 2.66 µM
- IC50 [5]: < 0.0316 µM
- IC50 [6]: < 0.0316 µM
- viability, T/C [7]: 109%
- viability, T/C [8]: 75.3%
- viability, T/C [9]: 98.3%
- viability, T/C [10]: 110%
- viability, T/C [11]: 76.8%
- viability, T/C [12]: 50.6%
- viability, T/C [13]: 109%
- viability, T/C [14]: 102%
- viability, T/C [15]: 90.5%
- viability, T/C [16]: 86.6%
- viability, T/C [17]: 77.2%
- viability, T/C [18]: 53.3%
- viability, T/C [19]: 87.3%
- viability, T/C [20]: 82.5%
- viability, T/C [21]: 82.4%
- viability, T/C [22]: 68.9%
- viability, T/C [23]: 54.3%
- viability, T/C [24]: 41.4%
- viability, T/C [25]: 65.6%
- viability, T/C [26]: 84.9%
- viability, T/C [27]: 75.2%
- viability, T/C [28]: 73%
- viability, T/C [29]: 46%
- viability, T/C [30]: 32.2%
- viability, T/C [31]: 38.8%
- viability, T/C [32]: 34.8%
- viability, T/C [33]: 35.4%
- viability, T/C [34]: 28.8%
- viability, T/C [35]: 32.2%
- viability, T/C [36]: 26.1%
- viability, T/C [37]: 18.5%
- viability, T/C [38]: 18.8%
- viability, T/C [39]: 18.2%
- viability, T/C [40]: 19.6%
- viability, T/C [41]: 18.4%
- viability, T/C [42]: 14.2%

Structure (SMILES): Cn1cnc2c(F)c(Nc3ccc(Br)cc3Cl)c(C(=O)NOCCO)cc21
- viability, T/C (compound 0.949 µM): 83.3% [middle of 4 runs]
- viability, T/C (compound 3 µM): 79.8% [middle of 4 runs]
- IC50 (curve of compound): > 3 µM

Structure (SMILES): C#Cc1c(F)ccc2cc(O)cc(-c3ncc4c(N5CC6CCC(C5)N6)nc(OCC56CCCN5CC(F)C6)nc4c3F)c12 (stereo unspecified) + COc1c(OCCCN2CCOCC2)ccc2c3n(c(=NC(=O)c4cnc(N)nc4)nc12)CCN3
- IC50 [1]: > 10 µM
- IC50 [2]: > 10 µM
- IC50 [3]: > 10 µM
- IC50 [4]: > 10 µM
- IC50 [5]: < 0.0316 µM
- IC50 [6]: < 0.0316 µM
- viability, T/C [7]: 124%
- viability, T/C [8]: 91.1%
- viability, T/C [9]: 121%
- viability, T/C [10]: 102%
- viability, T/C [11]: 121%
- viability, T/C [12]: 94.1%
- viability, T/C [13]: 107%
- viability, T/C [14]: 98.8%
- viability, T/C [15]: 104%
- viability, T/C [16]: 88.1%
- viability, T/C [17]: 81.1%
- viability, T/C [18]: 97%
- viability, T/C [19]: 79%
- viability, T/C [20]: 114%
- viability, T/C [21]: 94.2%
- viability, T/C [22]: 110%
- viability, T/C [23]: 99%
- viability, T/C [24]: 104%
- viability, T/C [25]: 70.2%
- viability, T/C [26]: 95%
- viability, T/C [27]: 79.2%
- viability, T/C [28]: 81.4%
- viability, T/C [29]: 83.4%
- viability, T/C [30]: 59.8%
- viability, T/C [31]: 44.6%
- viability, T/C [32]: 41.3%
- viability, T/C [33]: 45%
- viability, T/C [34]: 41.8%
- viability, T/C [35]: 33.1%
- viability, T/C [36]: 26.9%
- viability, T/C [37]: 18.7%
- viability, T/C [38]: 17.3%
- viability, T/C [39]: 18.1%
- viability, T/C [40]: 19.2%
- viability, T/C [41]: 19.1%
- viability, T/C [42]: 14.4%
